Reference: US11000033B2, “Ketone or oxime compound, and herbicide” (NISSAN CHEMICAL CORPORATION, priority 2014, dated 2021)

How the values were obtained:
Assay type in all cases: in vivo
Alopecurus myosuroides = assay: Test Example 5: herbicidal effect by foliage application, plastic box (symbol J); conditions: 320 g/ha, 3 weeks after application
How it was run: (§1)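 Greenhouse foliar test: seedlings at 14 days, grown 25° C. to 30° C. in sterilized diluvial soil; compound applied as an aqueous dilution of an emulsion; response read 3 weeks after spraying.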

Digitaria ciliaris = assay: Test Example 5: herbicidal effect by foliage application, plastic box (symbol F); conditions: 320 g/ha, 3 weeks after application
How it was run: as §1

Leptochloa chinensis = assay: Test Example 3: herbicidal effect by foliage application, Wagner pot (symbol D); conditions: application herbicide amount 320 g/ha
How it was run: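 Foliar spray of water-diluted emulsion formulation at a predetermined herbicide amount onto 14-day-old plants in flooded alluvial soil (water depth 0.1–0.5 cm), greenhouse 25–30 °C; rice sown alongside. Scored 3 wk post-application on set criteria.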

Monochoria vaginalis = assay: Test Example 2: herbicidal activity, application during weed generation in submerged conditions (symbol C); conditions: Table 23; application herbicide amount 320 g/ha; grade 0-5 by criteria of Test Example 1
How it was run: (§2)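 Paddy pot test, submerged (4 cm water), alluvial soil, mixed sowing; greenhouse 25–30° C. Emulsion formulation diluted to predetermined rate, applied onto floodwater at 1–2 leaf stage. Visual herbicidal rating at 3 wk post-treatment.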

Avena fatua = assay: Test Example 5: herbicidal effect by foliage application, plastic box (symbol I); conditions: 320 g/ha, 3 weeks after application
How it was run: as §1

rapeseed = assay: Test Example 5: effect on crop by foliage application, plastic box (symbol g); conditions: 320 g/ha, 3 weeks after application
How it was run: (§3)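 Sterilized diluvial soil, plastic box (21 × 13 × 7 cm); spot sowing, ~1.5 cm soil cover; greenhouse 25–30° C.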

[1] = test system: Echinochloa oryzacola Vasing.; assay: Test Example 1: herbicidal activity, application before weed generation in submerged conditions (symbol A); conditions: application herbicide amount 320 g/ha
How it was run: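 Steps: alluvial soil flooded to 4 cm; weed seeds sown together; rice seedlings (2.5 leaf) transplanted; diluted emulsion applied to water surface the same day as sowing; plants grown at 25–30 °C in greenhouse; herbicidal effect rated on a 0–5 scale at 3 weeks.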

Veronica persica = assay: Test Example 4: herbicidal effect by soil treatment (symbol R); conditions: application herbicide amount 320 g/ha
How it was run: (§4)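 Seeds were sown in sterilized diluvial soil, covered with about 1.5 cm of soil, and the soil surface was sprayed with a water-diluted emulsion of the compound at a predetermined rate. Plants grew in a greenhouse at 25° C. to 30° C.; effects were scored visually 3 weeks after application.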

beet [2] = assay: Test Example 5: effect on crop by foliage application, plastic box (symbol f); conditions: 320 g/ha, 3 weeks after application
How it was run: as §3

Setaria viridis = assay: Test Example 4: herbicidal effect by soil treatment (symbol G); conditions: application herbicide amount 320 g/ha
How it was run: as §4

Scirpus juncoides = assay: Test Example 2: herbicidal activity, application during weed generation in submerged conditions (symbol B); conditions: Table 23; application herbicide amount 320 g/ha; grade 0-5 by criteria of Test Example 1
How it was run: as §2

beet [3] = assay: Test Example 4: effect on crop by soil treatment (symbol f); conditions: application herbicide amount 320 g/ha
How it was run: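 Plants are raised in a greenhouse (25° C. to 30° C.) from spot-sown seed, which sits under about 1.5 cm of sterilized diluvial soil in a box shared with weed species.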

Compound: COCCON=C(C)CC1CC(O)=C(c2c(C)cc(C)cc2C)C1=O (stereo not drawn) [1-041]
- J: Alopecurus myosuroides, herbicidal effect grade (Alopecurus myosuroides): 5 (Herbicidal ratio of 90% or more (almost completely withered))
- F: Digitaria ciliaris, herbicidal effect grade (Digitaria ciliaris): 5 (Herbicidal ratio of 90% or more (almost completely withered))
- herbicidal effect on D (Leptochloa chinensis), grade 0-5 (Leptochloa chinensis): 5 (Herbicidal ratio of 90% or more (almost completely withered))
- Herbicidal effect grade, C: Monochoria vaginalis (Monochoria vaginalis): 0 (Herbicidal ratio of 5% or lower (almost no effect))
- I: Avena fatua, herbicidal effect grade (Avena fatua): 5 (Herbicidal ratio of 90% or more (almost completely withered))
- g: rapeseed, effect on crop grade (rapeseed): 4 (Herbicidal ratio of 70% or higher and lower than 90%)
- Herbicidal effect grade, A: Echinochloa oryzacola Vasing. [1]: 5 (Herbicidal ratio of 90% or more (almost completely withered))
- R (Veronica persica) herbicidal effect grade (Veronica persica): 3 (Herbicidal ratio of 40% or higher and lower than 70%)
- f: beet, effect on crop grade (beet [2]): 1 (Herbicidal ratio of 5% or higher and lower than 20%)
- G (Setaria viridis) herbicidal effect grade (Setaria viridis): 5 (Herbicidal ratio of 90% or more (almost completely withered))
- Herbicidal effect grade, B: Scirpus juncoides (Scirpus juncoides): 0 (Herbicidal ratio of 5% or lower (almost no effect))

Compound: CON=C(CC1CC(O)=C(c2c(C)cc(C)cc2C)C1=O)c1ccccn1 (stereo not drawn) [1-045]
- J: Alopecurus myosuroides, herbicidal effect grade (Alopecurus myosuroides): 5 (Herbicidal ratio of 90% or more (almost completely withered))
- F: Digitaria ciliaris, herbicidal effect grade (Digitaria ciliaris): 4 (Herbicidal ratio of 70% or higher and lower than 90%)
- herbicidal effect on D (Leptochloa chinensis), grade 0-5 (Leptochloa chinensis): 4 (Herbicidal ratio of 70% or higher and lower than 90%)
- Herbicidal effect grade, C: Monochoria vaginalis (Monochoria vaginalis): 0 (Herbicidal ratio of 5% or lower (almost no effect))
- I: Avena fatua, herbicidal effect grade (Avena fatua): 5 (Herbicidal ratio of 90% or more (almost completely withered))
- f (beet) effect on crop grade (beet [3]): 0 (Herbicidal ratio of 5% or lower (almost no effect))
- g: rapeseed, effect on crop grade (rapeseed): 2 (Herbicidal ratio of 20% or higher and lower than 40%)
- Herbicidal effect grade, A: Echinochloa oryzacola Vasing. [1]: 5 (Herbicidal ratio of 90% or more (almost completely withered))
- f: beet, effect on crop grade (beet [2]): 0 (Herbicidal ratio of 5% or lower (almost no effect))
- G (Setaria viridis) herbicidal effect grade (Setaria viridis): 0 (Herbicidal ratio of 5% or lower (almost no effect))
- Herbicidal effect grade, B: Scirpus juncoides (Scirpus juncoides): 0 (Herbicidal ratio of 5% or lower (almost no effect))

Compound: CON=C(CC1CC(O)=C(c2c(C)cc(C)cc2C)C1=O)C1CC1 (stereo not drawn) [1-046]
- J: Alopecurus myosuroides, herbicidal effect grade (Alopecurus myosuroides): 5 (Herbicidal ratio of 90% or more (almost completely withered))
- F: Digitaria ciliaris, herbicidal effect grade (Digitaria ciliaris): 4 (Herbicidal ratio of 70% or higher and lower than 90%)
- herbicidal effect on D (Leptochloa chinensis), grade 0-5 (Leptochloa chinensis): 5 (Herbicidal ratio of 90% or more (almost completely withered))
- Herbicidal effect grade, C: Monochoria vaginalis (Monochoria vaginalis): 3 (Herbicidal ratio of 40% or higher and lower than 70%)
- I: Avena fatua, herbicidal effect grade (Avena fatua): 5 (Herbicidal ratio of 90% or more (almost completely withered))
- f (beet) effect on crop grade (beet [3]): 0 (Herbicidal ratio of 5% or lower (almost no effect))
- g: rapeseed, effect on crop grade (rapeseed): 4 (Herbicidal ratio of 70% or higher and lower than 90%)
- Herbicidal effect grade, A: Echinochloa oryzacola Vasing. [1]: 5 (Herbicidal ratio of 90% or more (almost completely withered))
- f: beet, effect on crop grade (beet [2]): 0 (Herbicidal ratio of 5% or lower (almost no effect))
- G (Setaria viridis) herbicidal effect grade (Setaria viridis): 4 (Herbicidal ratio of 70% or higher and lower than 90%)
- Herbicidal effect grade, B: Scirpus juncoides (Scirpus juncoides): 5 (Herbicidal ratio of 90% or more (almost completely withered))

Compound: CON=C(C)C(c1ccc(F)cc1)C1CC(O)=C(c2c(C)cc(C)cc2C)C1=O (stereo not drawn) [1-049]
- J: Alopecurus myosuroides, herbicidal effect grade (Alopecurus myosuroides): 0 (Herbicidal ratio of 5% or lower (almost no effect))
- F: Digitaria ciliaris, herbicidal effect grade (Digitaria ciliaris): 0 (Herbicidal ratio of 5% or lower (almost no effect))
- herbicidal effect on D (Leptochloa chinensis), grade 0-5 (Leptochloa chinensis): 0 (Herbicidal ratio of 5% or lower (almost no effect))
- Herbicidal effect grade, C: Monochoria vaginalis (Monochoria vaginalis): 0 (Herbicidal ratio of 5% or lower (almost no effect))
- I: Avena fatua, herbicidal effect grade (Avena fatua): 0 (Herbicidal ratio of 5% or lower (almost no effect))
- f (beet) effect on crop grade (beet [3]): 0 (Herbicidal ratio of 5% or lower (almost no effect))
- g: rapeseed, effect on crop grade (rapeseed): 0 (Herbicidal ratio of 5% or lower (almost no effect))
- Herbicidal effect grade, A: Echinochloa oryzacola Vasing. [1]: 0 (Herbicidal ratio of 5% or lower (almost no effect))
- f: beet, effect on crop grade (beet [2]): 0 (Herbicidal ratio of 5% or lower (almost no effect))
- G (Setaria viridis) herbicidal effect grade (Setaria viridis): 0 (Herbicidal ratio of 5% or lower (almost no effect))
- Herbicidal effect grade, B: Scirpus juncoides (Scirpus juncoides): 0 (Herbicidal ratio of 5% or lower (almost no effect))

Compound: CON=CCC1CC(O)=C(c2c(C)cc(C)cc2C)C1=O (stereo not drawn) [1-050]
- J: Alopecurus myosuroides, herbicidal effect grade (Alopecurus myosuroides): 4 (Herbicidal ratio of 70% or higher and lower than 90%)
- F: Digitaria ciliaris, herbicidal effect grade (Digitaria ciliaris): 3 (Herbicidal ratio of 40% or higher and lower than 70%)
- herbicidal effect on D (Leptochloa chinensis), grade 0-5 (Leptochloa chinensis): 4 (Herbicidal ratio of 70% or higher and lower than 90%)
- Herbicidal effect grade, C: Monochoria vaginalis (Monochoria vaginalis): 0 (Herbicidal ratio of 5% or lower (almost no effect))
- I: Avena fatua, herbicidal effect grade (Avena fatua): 3 (Herbicidal ratio of 40% or higher and lower than 70%)
- f (beet) effect on crop grade (beet [3]): 0 (Herbicidal ratio of 5% or lower (almost no effect))
- g: rapeseed, effect on crop grade (rapeseed): 4 (Herbicidal ratio of 70% or higher and lower than 90%)
- Herbicidal effect grade, A: Echinochloa oryzacola Vasing. [1]: 4 (Herbicidal ratio of 70% or higher and lower than 90%)
- f: beet, effect on crop grade (beet [2]): 0 (Herbicidal ratio of 5% or lower (almost no effect))
- G (Setaria viridis) herbicidal effect grade (Setaria viridis): 4 (Herbicidal ratio of 70% or higher and lower than 90%)
- Herbicidal effect grade, B: Scirpus juncoides (Scirpus juncoides): 0 (Herbicidal ratio of 5% or lower (almost no effect))

Compound: CON=C(C)CC1CC(OC(=O)C(C)(C)Oc2ccc(Cl)cc2)=C(c2c(C)cc(C)cc2C)C1=O (stereo not drawn) [1-051]
- J: Alopecurus myosuroides, herbicidal effect grade (Alopecurus myosuroides): 5 (Herbicidal ratio of 90% or more (almost completely withered))
- F: Digitaria ciliaris, herbicidal effect grade (Digitaria ciliaris): 5 (Herbicidal ratio of 90% or more (almost completely withered))
- herbicidal effect on D (Leptochloa chinensis), grade 0-5 (Leptochloa chinensis): 5 (Herbicidal ratio of 90% or more (almost completely withered))
- Herbicidal effect grade, C: Monochoria vaginalis (Monochoria vaginalis): 3 (Herbicidal ratio of 40% or higher and lower than 70%)
- I: Avena fatua, herbicidal effect grade (Avena fatua): 5 (Herbicidal ratio of 90% or more (almost completely withered))
- f (beet) effect on crop grade (beet [3]): 0 (Herbicidal ratio of 5% or lower (almost no effect))
- g: rapeseed, effect on crop grade (rapeseed): 4 (Herbicidal ratio of 70% or higher and lower than 90%)
- Herbicidal effect grade, A: Echinochloa oryzacola Vasing. [1]: 5 (Herbicidal ratio of 90% or more (almost completely withered))
- f: beet, effect on crop grade (beet [2]): 0 (Herbicidal ratio of 5% or lower (almost no effect))
- G (Setaria viridis) herbicidal effect grade (Setaria viridis): 5 (Herbicidal ratio of 90% or more (almost completely withered))
- Herbicidal effect grade, B: Scirpus juncoides (Scirpus juncoides): 5 (Herbicidal ratio of 90% or more (almost completely withered))

Compound: CON=C(CC1CC(O)=C(c2c(C)cc(C)cc2C)C1=O)C(C)(C)C (stereo not drawn) [1-059]
- J: Alopecurus myosuroides, herbicidal effect grade (Alopecurus myosuroides): 4 (Herbicidal ratio of 70% or higher and lower than 90%)
- F: Digitaria ciliaris, herbicidal effect grade (Digitaria ciliaris): 1 (Herbicidal ratio of 5% or higher and lower than 20%)
- herbicidal effect on D (Leptochloa chinensis), grade 0-5 (Leptochloa chinensis): 1 (Herbicidal ratio of 5% or higher and lower than 20%)
- Herbicidal effect grade, C: Monochoria vaginalis (Monochoria vaginalis): 0 (Herbicidal ratio of 5% or lower (almost no effect))
- I: Avena fatua, herbicidal effect grade (Avena fatua): 4 (Herbicidal ratio of 70% or higher and lower than 90%)
- f (beet) effect on crop grade (beet [3]): 0 (Herbicidal ratio of 5% or lower (almost no effect))
- g: rapeseed, effect on crop grade (rapeseed): 3 (Herbicidal ratio of 40% or higher and lower than 70%)
- Herbicidal effect grade, A: Echinochloa oryzacola Vasing. [1]: 5 (Herbicidal ratio of 90% or more (almost completely withered))
- f: beet, effect on crop grade (beet [2]): 0 (Herbicidal ratio of 5% or lower (almost no effect))
- G (Setaria viridis) herbicidal effect grade (Setaria viridis): 4 (Herbicidal ratio of 70% or higher and lower than 90%)
- Herbicidal effect grade, B: Scirpus juncoides (Scirpus juncoides): 0 (Herbicidal ratio of 5% or lower (almost no effect))

Compound: CON=C(C)CC1CC(OC(=O)COc2ccccc2[N+](=O)[O-])=C(c2c(C)cc(C)cc2C)C1=O (stereo not drawn) [1-071]
- J: Alopecurus myosuroides, herbicidal effect grade (Alopecurus myosuroides): 5 (Herbicidal ratio of 90% or more (almost completely withered))
- F: Digitaria ciliaris, herbicidal effect grade (Digitaria ciliaris): 5 (Herbicidal ratio of 90% or more (almost completely withered))
- herbicidal effect on D (Leptochloa chinensis), grade 0-5 (Leptochloa chinensis): 5 (Herbicidal ratio of 90% or more (almost completely withered))
- I: Avena fatua, herbicidal effect grade (Avena fatua): 5 (Herbicidal ratio of 90% or more (almost completely withered))
- g: rapeseed, effect on crop grade (rapeseed): 4 (Herbicidal ratio of 70% or higher and lower than 90%)
- Herbicidal effect grade, A: Echinochloa oryzacola Vasing. [1]: 5 (Herbicidal ratio of 90% or more (almost completely withered))
- R (Veronica persica) herbicidal effect grade (Veronica persica): 0 (Herbicidal ratio of 5% or lower (almost no effect))
- f: beet, effect on crop grade (beet [2]): 0 (Herbicidal ratio of 5% or lower (almost no effect))
- G (Setaria viridis) herbicidal effect grade (Setaria viridis): 5 (Herbicidal ratio of 90% or more (almost completely withered))
- Herbicidal effect grade, B: Scirpus juncoides (Scirpus juncoides): 3 (Herbicidal ratio of 40% or higher and lower than 70%)
